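Values below derive from 48-hour exposures of cells grown in 96-well plates, with endpoints linearly interpolated between the two concentrations bracketing the appropriate inhibition level. TGI marks complete inhibition of growth.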
Columns and labels:
Assay in all cases: NCI-60 cell line screen, 48 h
[1] = tested on: 786-0 renal
[2] = tested on: A498 renal
[3] = tested on: A549 NSCLC
[4] = tested on: ACHN renal
[5] = tested on: BT-549 breast
[6] = tested on: CAKI-1 renal
[7] = tested on: CCRF-CEM leukemia
[8] = tested on: COLO 205 colon
[9] = tested on: DU-145 prostate
[10] = tested on: EKVX NSCLC
[11] = tested on: HCC-2998 colon
[12] = tested on: HCT-116 colon
[13] = tested on: HCT-15 colon
[14] = tested on: HL-60(TB) leukemia
[15] = tested on: HOP-62 NSCLC
[16] = tested on: HOP-92 NSCLC
[17] = tested on: IGROV1 ovarian
[18] = tested on: K-562 leukemia
[19] = tested on: KM12 colon
[20] = tested on: LOX IMVI melanoma
[21] = tested on: M14 melanoma
[22] = tested on: MCF7 breast
[23] = tested on: MDA-MB-435
[24] = tested on: MDA-N
[25] = tested on: MOLT-4 leukemia
[26] = tested on: NCI-H23 lung
[27] = tested on: NCI-H460 lung
[28] = tested on: NCI/ADR-RES ovarian
[29] = tested on: OVCAR-3 ovarian
[30] = tested on: OVCAR-4 ovarian
[31] = tested on: OVCAR-5 ovarian
[32] = tested on: OVCAR-8 ovarian
[33] = tested on: PC-3 prostate
[34] = tested on: RPMI-8226 leukemia
[35] = tested on: RXF 393 renal
[36] = tested on: SF-295 CNS
[37] = tested on: SK-MEL-2 melanoma
[38] = tested on: SK-MEL-28 melanoma
[39] = tested on: SK-MEL-5 melanoma
[40] = tested on: SK-OV-3 ovarian
[41] = tested on: SN12C renal
[42] = tested on: SNB-19 CNS
[43] = tested on: SNB-75 CNS
[44] = tested on: SR leukemia
[45] = tested on: SW-620 colon
[46] = tested on: T-47D breast
[47] = tested on: TK-10 renal
[48] = tested on: U251 CNS
[49] = tested on: UACC-257 melanoma
[50] = tested on: UACC-62 melanoma
[51] = tested on: UO-31 renal
[52] = tested on: MALME-3M melanoma
[53] = tested on: MDA-MB-231 breast
[54] = tested on: NCI-H226 lung
[55] = tested on: NCI-H522 lung
[56] = tested on: SF-539 CNS

CCOC(=O)C1=c2[nH]c3cccc4cccc(c43)n2C=C(C(C)=O)C1CC(C)=O (centres undefined)
TGI [1]: > 100 µM
TGI [2]: > 100 µM
TGI [3]: > 100 µM
TGI [4]: > 100 µM
TGI [5]: > 100 µM
TGI [6]: > 100 µM
TGI [7]: > 100 µM
TGI [8]: > 100 µM
TGI [9]: > 100 µM
TGI [10]: > 100 µM
TGI [11]: > 100 µM
TGI [12]: > 100 µM
TGI [13]: > 100 µM
TGI [14]: 59.2 µM
TGI [15]: > 100 µM
TGI [16]: > 100 µM
TGI [17]: > 100 µM
TGI [18]: > 100 µM
TGI [19]: > 100 µM
TGI [20]: > 100 µM
TGI [21]: > 100 µM
TGI [22]: > 100 µM
TGI [23]: > 100 µM
TGI [24]: > 100 µM
TGI [25]: > 100 µM
TGI [26]: > 100 µM
TGI [27]: > 100 µM
TGI [28]: > 100 µM
TGI [29]: > 100 µM
TGI [30]: > 100 µM
TGI [31]: > 100 µM
TGI [32]: > 100 µM
TGI [33]: > 100 µM
TGI [34]: > 100 µM
TGI [35]: > 100 µM
TGI [36]: > 100 µM
TGI [37]: > 100 µM
TGI [38]: > 100 µM
TGI [39]: > 100 µM
TGI [40]: > 100 µM
TGI [41]: > 100 µM
TGI [42]: > 100 µM
TGI [43]: > 100 µM
TGI [44]: > 100 µM
TGI [45]: > 100 µM
TGI [46]: > 100 µM
TGI [47]: > 100 µM
TGI [48]: > 100 µM
TGI [49]: > 100 µM
TGI [50]: > 100 µM
TGI [51]: > 100 µM

C=C1c2nc3ccccc3n2C=C(c2ccccc2)N1c1ccccc1
TGI [1]: > 100 µM
TGI [2]: > 100 µM
TGI [3]: > 100 µM
TGI [4]: > 100 µM
TGI [5]: 98.5 µM
TGI [6]: > 100 µM
TGI [7]: > 100 µM
TGI [8]: > 100 µM
TGI [9]: > 100 µM
TGI [10]: > 100 µM
TGI [11]: 28.8 µM
TGI [12]: > 100 µM
TGI [13]: 51.9 µM
TGI [14]: > 100 µM
TGI [16]: > 100 µM
TGI [17]: > 100 µM
TGI [18]: > 100 µM
TGI [19]: 59.8 µM
TGI [20]: > 100 µM
TGI [21]: > 100 µM
TGI [52]: > 100 µM
TGI [22]: > 100 µM
TGI [53]: > 100 µM
TGI [23]: > 100 µM
TGI [24]: > 100 µM
TGI [25]: > 100 µM
TGI [54]: > 100 µM
TGI [26]: > 100 µM
TGI [27]: 79.6 µM
TGI [55]: > 100 µM
TGI [28]: > 100 µM
TGI [29]: > 100 µM
TGI [30]: > 100 µM
TGI [31]: > 100 µM
TGI [32]: > 100 µM
TGI [33]: > 100 µM
TGI [34]: > 100 µM
TGI [35]: > 100 µM
TGI [36]: > 100 µM
TGI [56]: > 100 µM
TGI [37]: > 100 µM
TGI [39]: 83.3 µM
TGI [40]: > 100 µM
TGI [41]: > 100 µM
TGI [42]: > 100 µM
TGI [43]: > 100 µM
TGI [44]: > 100 µM
TGI [45]: > 100 µM
TGI [47]: > 100 µM
TGI [48]: > 100 µM
TGI [49]: > 100 µM
TGI [50]: > 100 µM
TGI [51]: > 100 µM
